Laboratory results as given in PubChem BioAssay (NCI).
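Step 1: Grow cells in 96-well plates. Step 2: Expose to compound for 48 hours at 5 concentrations. Step 3: Interpolate endpoints linearly; if unreached, use highest concentration. GI50: concentration for 50% inhibition of growth. TGI marks complete inhibition of growth.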

Columns and labels:
Experiment in all cases: DTP human tumour cell line panel, 48 h
TK-10 renal = test system: TK-10 renal
HCT-15 colon = test system: HCT-15 colon
HOP-18 NSCLC = test system: HOP-18 NSCLC
SK-OV-3 ovarian = test system: SK-OV-3 ovarian
SR leukemia = test system: SR leukemia
NCI-H522 lung = test system: NCI-H522 lung
DMS 273 small cell lung = test system: DMS 273 small cell lung
XF 498 CNS = test system: XF 498 CNS
NCI-H226 lung = test system: NCI-H226 lung
LXFL 529 NSCLC = test system: LXFL 529 NSCLC
SK-MEL-28 melanoma = test system: SK-MEL-28 melanoma
SNB-78 CNS = test system: SNB-78 CNS
SF-268 CNS = test system: SF-268 CNS
KM20L2 colon = test system: KM20L2 colon
NCI-H460 lung = test system: NCI-H460 lung
OVCAR-3 ovarian = test system: OVCAR-3 ovarian
SW-620 colon = test system: SW-620 colon
HCT-116 colon = test system: HCT-116 colon
HCC-2998 colon = test system: HCC-2998 colon
OVCAR-8 ovarian = test system: OVCAR-8 ovarian
HOP-62 NSCLC = test system: HOP-62 NSCLC
SN12C renal = test system: SN12C renal
CCRF-CEM leukemia = test system: CCRF-CEM leukemia
MALME-3M melanoma = test system: MALME-3M melanoma
DMS 114 small cell lung = test system: DMS 114 small cell lung
RPMI-8226 leukemia = test system: RPMI-8226 leukemia
OVCAR-5 ovarian = test system: OVCAR-5 ovarian
HOP-92 NSCLC = test system: HOP-92 NSCLC
KM12 colon = test system: KM12 colon
M19-MEL melanoma = test system: M19-MEL melanoma
LOX IMVI melanoma = test system: LOX IMVI melanoma
UACC-62 melanoma = test system: UACC-62 melanoma
K-562 leukemia = test system: K-562 leukemia
M14 melanoma = test system: M14 melanoma
SK-MEL-2 melanoma = test system: SK-MEL-2 melanoma
HL-60(TB) leukemia = test system: HL-60(TB) leukemia
U251 CNS = test system: U251 CNS
A549 NSCLC = test system: A549 NSCLC
786-0 renal = test system: 786-0 renal
SK-MEL-5 melanoma = test system: SK-MEL-5 melanoma
DLD-1 colon = test system: DLD-1 colon
SF-539 CNS = test system: SF-539 CNS
SNB-19 CNS = test system: SNB-19 CNS
HT29 colon = test system: HT29 colon
COLO 205 colon = test system: COLO 205 colon
IGROV1 ovarian = test system: IGROV1 ovarian
OVCAR-4 ovarian = test system: OVCAR-4 ovarian
ACHN renal = test system: ACHN renal
UO-31 renal = test system: UO-31 renal
RXF 393 renal = test system: RXF 393 renal
UACC-257 melanoma = test system: UACC-257 melanoma
SNB-75 CNS = test system: SNB-75 CNS
NCI-H23 lung = test system: NCI-H23 lung
EKVX NSCLC = test system: EKVX NSCLC
SF-295 CNS = test system: SF-295 CNS
MOLT-4 leukemia = test system: MOLT-4 leukemia

COc1cc(C)cc2c1[nH]c1ccccc12
TGI (TK-10 renal): > 25 µM | GI50 (HCT-15 colon): 7.45 µM | TGI (HCT-15 colon): > 25 µM | GI50 (HOP-18 NSCLC): 0.29 µM | TGI (HOP-18 NSCLC): 12.7 µM | GI50 (SK-OV-3 ovarian): 20.9 µM | TGI (SK-OV-3 ovarian): > 25 µM | GI50 (SR leukemia): 10.3 µM | TGI (SR leukemia): > 25 µM | GI50 (NCI-H522 lung): 4.24 µM | TGI (NCI-H522 lung): 13.3 µM | GI50 (DMS 273 small cell lung): 7.73 µM | TGI (DMS 273 small cell lung): > 25 µM | GI50 (XF 498 CNS): 22.6 µM | TGI (XF 498 CNS): > 25 µM | GI50 (NCI-H226 lung): 8.44 µM | TGI (NCI-H226 lung): > 25 µM | GI50 (LXFL 529 NSCLC): 18.3 µM | TGI (LXFL 529 NSCLC): > 25 µM | GI50 (SK-MEL-28 melanoma): 16.3 µM | TGI (SK-MEL-28 melanoma): > 25 µM | TGI (SNB-78 CNS): > 25 µM | GI50 (SF-268 CNS): 14.3 µM | TGI (SF-268 CNS): > 25 µM | GI50 (KM20L2 colon): 7.53 µM | TGI (KM20L2 colon): 19.6 µM | GI50 (NCI-H460 lung): 7.83 µM | TGI (NCI-H460 lung): > 25 µM | TGI (OVCAR-3 ovarian): > 25 µM | GI50 (SW-620 colon): 8.35 µM | TGI (SW-620 colon): > 25 µM | GI50 (HCT-116 colon): 11.4 µM | TGI (HCT-116 colon): > 25 µM | GI50 (HCC-2998 colon): 14.9 µM | TGI (HCC-2998 colon): > 25 µM | TGI (OVCAR-8 ovarian): 23.9 µM | TGI (HOP-62 NSCLC): 18.6 µM | GI50 (SN12C renal): 14.1 µM | TGI (SN12C renal): > 25 µM | GI50 (CCRF-CEM leukemia): 15.4 µM | TGI (CCRF-CEM leukemia): > 25 µM | GI50 (MALME-3M melanoma): 8.11 µM | TGI (MALME-3M melanoma): > 25 µM | TGI (DMS 114 small cell lung): > 25 µM | TGI (RPMI-8226 leukemia): > 25 µM | TGI (OVCAR-5 ovarian): > 25 µM | GI50 (HOP-92 NSCLC): 23.5 µM | TGI (HOP-92 NSCLC): > 25 µM | GI50 (KM12 colon): 8.12 µM | TGI (KM12 colon): > 25 µM | GI50 (M19-MEL melanoma): 18.3 µM | TGI (M19-MEL melanoma): > 25 µM | GI50 (LOX IMVI melanoma): 12.7 µM | TGI (LOX IMVI melanoma): > 25 µM | GI50 (UACC-62 melanoma): 15 µM | TGI (UACC-62 melanoma): > 25 µM | TGI (K-562 leukemia): > 25 µM | GI50 (M14 melanoma): 7.24 µM | TGI (M14 melanoma): 22.1 µM | GI50 (SK-MEL-2 melanoma): 7.33 µM | TGI (SK-MEL-2 melanoma): > 25 µM | GI50 (HL-60(TB) leukemia): 6.88 µM | TGI (HL-60(TB) leukemia): > 25 µM | GI50 (U251 CNS): 10.4 µM | TGI (U251 CNS): > 25 µM | TGI (A549 NSCLC): > 25 µM | GI50 (786-0 renal): 9.37 µM | TGI (786-0 renal): > 25 µM | GI50 (SK-MEL-5 melanoma): 9.19 µM | TGI (SK-MEL-5 melanoma): > 25 µM | GI50 (DLD-1 colon): 10.5 µM | TGI (DLD-1 colon): > 25 µM | GI50 (SF-539 CNS): 6.01 µM | TGI (SF-539 CNS): 14.5 µM | TGI (SNB-19 CNS): > 25 µM | GI50 (HT29 colon): 7.78 µM | TGI (HT29 colon): > 25 µM | GI50 (COLO 205 colon): 12.4 µM | TGI (COLO 205 colon): > 25 µM | GI50 (IGROV1 ovarian): 14.8 µM | TGI (IGROV1 ovarian): > 25 µM | TGI (OVCAR-4 ovarian): > 25 µM | GI50 (ACHN renal): 23.4 µM | TGI (ACHN renal): > 25 µM | GI50 (UO-31 renal): 15 µM | TGI (UO-31 renal): > 25 µM | TGI (RXF 393 renal): 22.5 µM

C#C[C@]1(O)CCC2C3CCc4cc(Oc5nc(F)nc(-n6c(C)nc7cc8ccccc8cc76)n5)ccc4C3CCC21C (stereo partly drawn)
TGI (TK-10 renal): > 100 µM | TGI (HOP-18 NSCLC): > 100 µM | TGI (SK-OV-3 ovarian): > 100 µM | TGI (UACC-257 melanoma): > 100 µM | TGI (NCI-H522 lung): > 100 µM | TGI (DMS 273 small cell lung): > 100 µM | TGI (XF 498 CNS): > 100 µM | TGI (NCI-H226 lung): > 100 µM | TGI (LXFL 529 NSCLC): > 100 µM | TGI (SNB-78 CNS): > 100 µM | TGI (SF-268 CNS): > 100 µM | TGI (SNB-75 CNS): > 100 µM | TGI (NCI-H23 lung): > 100 µM | TGI (KM20L2 colon): > 100 µM | TGI (NCI-H460 lung): 65.9 µM | TGI (OVCAR-3 ovarian): > 100 µM | TGI (SW-620 colon): > 100 µM | TGI (HCT-116 colon): > 100 µM | TGI (HCC-2998 colon): > 100 µM | TGI (OVCAR-8 ovarian): > 100 µM | TGI (HOP-62 NSCLC): > 100 µM | TGI (SN12C renal): > 100 µM | TGI (CCRF-CEM leukemia): > 100 µM | TGI (MALME-3M melanoma): > 100 µM | TGI (DMS 114 small cell lung): 53.8 µM | TGI (RPMI-8226 leukemia): > 100 µM | TGI (EKVX NSCLC): > 100 µM | TGI (HOP-92 NSCLC): > 100 µM | TGI (KM12 colon): > 100 µM | TGI (M19-MEL melanoma): > 100 µM | TGI (LOX IMVI melanoma): > 100 µM | TGI (UACC-62 melanoma): > 100 µM | TGI (K-562 leukemia): > 100 µM | TGI (M14 melanoma): > 100 µM | TGI (SK-MEL-2 melanoma): > 100 µM | TGI (HL-60(TB) leukemia): > 100 µM | TGI (U251 CNS): > 100 µM | TGI (A549 NSCLC): > 100 µM | TGI (786-0 renal): > 100 µM | TGI (SF-295 CNS): > 100 µM | TGI (SK-MEL-5 melanoma): > 100 µM | TGI (DLD-1 colon): > 100 µM | TGI (SF-539 CNS): > 100 µM | TGI (SNB-19 CNS): > 100 µM | TGI (HT29 colon): > 100 µM | TGI (COLO 205 colon): 45.8 µM | TGI (IGROV1 ovarian): > 100 µM | TGI (ACHN renal): > 100 µM | TGI (UO-31 renal): > 100 µM | TGI (RXF 393 renal): > 100 µM | TGI (MOLT-4 leukemia): > 100 µM
